In patent EP1218012B1, “USE OF ALPROSTADIL (PROSTAGLANDIN E1) FOR PRODUCING A MEDICAMENT FOR ANGIONEOGENESIS” (Mehrabi, Mohammad Reza, priority 1999, dated 2001):

Key:
Patienten mit CMP [1] = experiment: Capillary density in transmural sections of explanted hearts (immunohistochemistry); type: in vivo; settings: for Kapillardichte: explanted hearts after infusion therapy
Description: Um die Frage zu beantworten, ob nun die Alprostadil (PGE1)-Infusionstherapie […] HTX die […] von Patienten mit vorangegangener Alprostadil (PGE 1)-Infusionstherapie und von Patienten ohne alprostadil (PGE 1)-Therapie immunhistochemisch untersucht und die […]. Jedes […] Herz wurde in drei gleich große Stücke, nämlich in Spitze, mittleren und […]. Die […] transmural durch den […] immunohistochemische Analysen wurde sofort […] in Formaldehyd nach der üblichen Methode konserviert. Die […] wurde getrennt im Subepicardium, Myocardium und dem Subendocardium bestimmt. Die Bestimmung […] 1,mm^2 wurde getrennt anhand von anti-CD34, von Willebrand-Faktor (vwf), vascular-endothelial-growth-factor (VEGF) , anti-Ki 67 (MIB 1) und Sirius Rot, immunhistochemisch […]. Die […] Subepicardium, Myocardium und Subendocardium von transmuralen […] wurde quantitativ bestimmt und verglichen. Patienten, die eine Alprostadil (PGE 1)- Infusionen […]. Die […] Subepicardium, Myocardium und Subendocardium von der Kontrollgruppe betrug 608,56 ± 91,32 […]), 542,44 ± 197,20 […]^2 (sEndo), und 452,22 - 101,99 […]^2 (Myo) in den drei transmuralen-[…]. Alprostadil (PGE 1)-behandelte Patienten hatten im Vergleich dazu mit 1168,11 ± 165,04 […]), 1066,00 ± 94,63 […]^2 (SEndo), und 974,56 ± 87,12 […]^2 (Myocard), ungefähr 50% […]. Untersuchung hinsichtlich spezifischer immunohistochemischer […]: […]

MIB-1 (anti-Ki67) = MIB-1 (anti-Ki67) positive cells in explanted hearts (proliferation marker); type: in vivo, Patienten
Description: Um die Frage zu beantworten, ob nun die Alprostadil (PGE1)-Infusionstherapie […] HTX die […] von Patienten mit vorangegangener Alprostadil (PGE 1)-Infusionstherapie und von Patienten ohne alprostadil (PGE 1)-Therapie immunhistochemisch untersucht und die […]. Jedes […] Herz wurde in drei gleich große Stücke, nämlich in Spitze, mittleren und […]. Die […] transmural durch den […] immunohistochemische Analysen wurde sofort […] in Formaldehyd nach der üblichen Methode konserviert. Die […] wurde getrennt im Subepicardium, Myocardium und dem Subendocardium bestimmt. Die Bestimmung […] 1,mm^2 wurde getrennt anhand von anti-CD34, von Willebrand-Faktor (vwf), vascular-endothelial-growth-factor (VEGF) , anti-Ki 67 (MIB 1) und Sirius Rot, immunhistochemisch […]. MIB-1 (anti-Ki67), ist ein Antikörper, der nur […], die nicht in der GO-Phase des Zellzyklus sind und wird üblicher Weise als Mitose- oder Proliferationsmarker eingesetzt. Er zeigt […] Reaktion bei mitotischen Zellen. Bei der Gruppe der Patienten mit Alprostadil(PGE 1)-Infusionstherapie war die Anzahl der MIB-1 positiven Zellen (Fig.3) in allen […] des Herzmuskels deutlich höher verglichen mit der Kontrollgruppe: (Subepicardium: 20,22 ± 4,87 pro mm^2 gegenüber 8,11 ± 2,67 pro mm^2, p <0,0001; Myocardium: 15,44 ± 4,64 pro mm^2 gegenüber 5,78 ± 2,11 pro mm^2, p <0,0001; Subendocardium: 17,84 ± 4,23 pro mm^2 gegenüber 6,89 ± 2,21 pro mm2). Die Ergebnisse sind auch in Fig.6C, 8G und 8H dargestellt.

[2] = system: Von Willebrand Faktor (vWf); experiment: Anti-vWf (factor VIII related antigen) reactive endothelium in explanted hearts (immunohistochemistry); type: in vivo, Patienten
Description: Um die Frage zu beantworten, ob nun die Alprostadil (PGE1)-Infusionstherapie […] HTX die […] von Patienten mit vorangegangener Alprostadil (PGE 1)-Infusionstherapie und von Patienten ohne alprostadil (PGE 1)-Therapie immunhistochemisch untersucht und die […]. Jedes […] Herz wurde in drei gleich große Stücke, nämlich in Spitze, mittleren und […]. Die […] transmural durch den […] immunohistochemische Analysen wurde sofort […] in Formaldehyd nach der üblichen Methode konserviert. Die […] wurde getrennt im Subepicardium, Myocardium und dem Subendocardium bestimmt. Die Bestimmung […] 1,mm^2 wurde getrennt anhand von anti-CD34, von Willebrand-Faktor (vwf), vascular-endothelial-growth-factor (VEGF) , anti-Ki 67 (MIB 1) und Sirius Rot, immunhistochemisch […] Marker wurde Faktor VIII immunhistochemisch untersucht. Die Herzen von CMP-Patienten nach Alprostadil(PGE 1)-Infusionstherapie zeigten bedeutend […] Endothelien (Abb.2) verglichen mit der Kontrollgruppe (Subepicardium: 425,56 ± 134.17 mm^2 gegenüber 192,22 ± 77,88 mm^2-Zellen, p <0,001; Myocardium: 360,00 ± 52,31 mm^2 gegenüber 159,89 ± 61.00 mm^2 p <0,0001; Subendocardium: 408,00 ± 80,00 mm^2 gegenüber 163,89 ± 47,52 mm^2, p <0,0001). Die Ergebnisse sind auch in Fig.6B, 8C und 8D dargestellt.

Patienten = experiment: Hypertrophy: muscle count and percent muscle fraction per mm^2; type: in vivo; settings: treated patients
Description: In PGE1-behandelten Patienten wurden Muskelzahl/mm^2 mit prozentuellem Muskelanteil/mm^2 bestimmt und mit unbehandelten Patienten und gesunden Kontrollen verglichen. Die Ergebnisse sind in der nachfolgenden Tabelle angegeben.

Tierversuche = settings: infused directly into hepatic veins, treated group; cited from earlier work
Patienten mit CMP [3] = experiment: Clinical infusion therapy study in CMP patients awaiting heart transplantation (haemodynamics, clinical state, maximum tolerated dose); type: in vivo
Description: Patienten mit CMP wurden für eine Herztranslation (HTX) angemeldet und medikamentös mit ACE-Hemmern, β-Blocker, Diuretika und Digitalis behandelt.
In einer vorangegangenen Studie erhielten mehrere Patienten mit Kardiomyopathie, darunter 9 Patienten mit dilatativer CMP vor einer HTX zusätzlich eine Alprostadil (PGE 1)-Infusionstherapie.
Die Einschlusskriterien für die Alprostadil (PGE 1)-Studie waren: • a. Patienten waren in ihrer täglichen Aktivität schwerwiegend eingeschränkt, obwohl sie eine maximale oralmedikamentöse Therapie mit ACE-Hemmer (Angiotensin-Converting-Enzym-Antagonisten), Diuretika und Digitalis bekamen. • b. Die Hämodynamik der Patienten zeigte einen niedrigen Herz-Index (< 2,5 L/min/m2) und einen höheren PCWP (pulmonory capillary wedge pressure) > 20 mm HG). • c. CMP-Patienten, die einen erhöhten peripheren Gefäßwiderstand aufweisen.
Die Infusionstherapie erfolgte unter laufender Messung der hämodynamischen Parameter. […] In dieser klinisch-experimentellen Studie wurde die Alprostadil (PGE1)-Infusionstherapie bei Patienten im Endstadium der Herizinsuffizienz im Sinne einer adjuvanten Therapie bis zur HTX verwendet.
Die Alprostadil (PGE1)-Infusionen erfolgten über einen zentralen Rechtsherzkatheter (Hickman-Katheter) mit einer anfänglichen Dosis von 2,5 ng/kg/min, die dann bis zur maximal tolerierten Dosis (MTD) gesteigert wurde. MTD war die Dosis, bei der eine der folgenden Nebenwirkungen auftraten: Muskelschmerzen, Knochenschmerzen, Blutdruckabfall, Übelkeit, Erbrechen, Durchfall, Kopfschmerzen oder andere Nebvenwirkungen. Unter der MTD (29 ± 1 ng/kg/min) wurden die hämodynamischen Parameter dokumntiert. Die MTD wurde in den folgenden 12 Stunden halbiert und nach der Stabilisierung der Hämodynamik wurde die Therapie mit einer tragbaren Pumpe zu Hause fortgesetzt.

VEGF = experiment: VEGF-positive capillaries in explanted hearts (immunohistochemistry); type: in vivo, Patienten
Description: Um die Frage zu beantworten, ob nun die Alprostadil (PGE1)-Infusionstherapie […] HTX die […] von Patienten mit vorangegangener Alprostadil (PGE 1)-Infusionstherapie und von Patienten ohne alprostadil (PGE 1)-Therapie immunhistochemisch untersucht und die […]. Jedes […] Herz wurde in drei gleich große Stücke, nämlich in Spitze, mittleren und […]. Die […] transmural durch den […] immunohistochemische Analysen wurde sofort […] in Formaldehyd nach der üblichen Methode konserviert. Die […] wurde getrennt im Subepicardium, Myocardium und dem Subendocardium bestimmt. Die Bestimmung […] 1,mm^2 wurde getrennt anhand von anti-CD34, von Willebrand-Faktor (vwf), vascular-endothelial-growth-factor (VEGF) , anti-Ki 67 (MIB 1) und Sirius Rot, immunhistochemisch […]. VEGF ist beschrieben als spezifischer Wachstumsfaktor für Endothelzellen. Alprostadil (PGE 1)-behandelte Patienten zeigten bedeutend mehr VEGF-positive […] als die Kontrollgruppe (Fig.4) in allen drei untersuchten Abschnittsebenen (Subepicardium: 101,2 ± 5,5/mm^2 gegenüber 38.1 ± 7,2-VEGF-positive Zellen/mm^2, p <0,0001; Myocardium 76,2 ± 4,9/mm^2 gegenüber 20,6 ± 4,9/mm^2, p <0,0001; Subendocardium: 89,1 ± 5,7/mm^2 gegenüber 27,8 ± 5,1/mm^2, p <0,0001). Die Ergebnisse sind auch in Fig.6D, 8E und 8F dargestellt.

CD 34 = experiment: Anti-CD34 reactive endothelium in explanted hearts (immunohistochemistry); type: in vivo, Patienten
Description: Um die Frage zu beantworten, ob nun die Alprostadil (PGE1)-Infusionstherapie […] HTX die […] von Patienten mit vorangegangener Alprostadil (PGE 1)-Infusionstherapie und von Patienten ohne alprostadil (PGE 1)-Therapie immunhistochemisch untersucht und die […]. Jedes […] Herz wurde in drei gleich große Stücke, nämlich in Spitze, mittleren und […]. Die […] transmural durch den […] immunohistochemische Analysen wurde sofort […] in Formaldehyd nach der üblichen Methode konserviert. Die […] wurde getrennt im Subepicardium, Myocardium und dem Subendocardium bestimmt. Die Bestimmung […] 1,mm^2 wurde getrennt anhand von anti-CD34, von Willebrand-Faktor (vwf), vascular-endothelial-growth-factor (VEGF) , anti-Ki 67 (MIB 1) und Sirius Rot, immunhistochemisch […]. CD 34 wird von allen Endothelzellen im normalen Gewebe exprimiert. CD 34 wird auch zum Nachweis von Endothel bzw. -zellen benutzt. Patienten nach einer Alprostadil (PGE […] Endothel (Fig.1) auf als die Kontrollgruppe (Subepicardium: 599,22 ± 107,17 mm^2 gegenüber 322,89 ± 160,64 mm^2-Zellen, p <0,001; Myocardium: 482,11 ± 79,86 mm^2 vs. 227,22 ± 49,30 mm^2 , p<0.0001; Subendocardium: 482,11 ± 79,86 mm^2 gegenüber 227,22 ± 49,30 mm^2, p <0,0001); Subendocardium: 551,67 ± 107.74 mm^2 gegenüber 308,56 ± 193.86 mm^2, p < 0,01). Die Ergebnisse sind auch in Fig.6A, 8A und 8B dargestellt.

[4] = system: Patienten mit dilatativer CMP; experiment: Fibrosis degree and heart muscle fraction (Sirius red staining) in explanted hearts; type: in vivo; settings: patients with dilated CMP
Description: Die […] wurde getrennt im Subepicardium, Myocardium und dem Subendocardium bestimmt. Die Bestimmung […] 1,mm^2 wurde getrennt anhand von anti-CD34, von Willebrand-Faktor (vwf), vascular-endothelial-growth-factor (VEGF) , anti-Ki 67 (MIB 1) und Sirius Rot, immunhistochemisch […]. Die Bestimmung des Fibrosegrads und des Herzmuskelanteils bei Alprostadil (PGE 1)-behandelten Patienten (Fig.5) gegenüber der Kontrollgruppe zeigte, dass die Alprostadil (PGE1)- Infusionstherapie den Fibrosegrad bei […] CMP […] (15,35 ± 10,32% gegenüber 6,89 ± 3,59%, p <0,05, bei einem vergleichbaren Herzmuskelanteil (72,69 ± 5,25% gegenüber 68,75 ± 6,23%).

[5] = system: Patienten mit chronischer Herzinsuffizien; settings: compared with the dobutamine-treated group; cited from earlier work
[6] = system: Patienten mit akutem Leberversagen; settings: treatment begun only 10 days after onset of clinical symptoms; cited from earlier work

For CCCCC[C@H](O)/C=C/[C@H]1[C@H](O)CC(=O)[C@@H]1CCCCCCC(=O)O [Alprostadil, Prostaglandin E1], the Kapillardichte (Patienten mit CMP [1]; Myocardium (Myocard)) was 974,56 ± 87,12 Kapillaren/mm^2, the Kapillardichte (Patienten mit CMP [1]; Subendocardium (SEndo)) was 1066,00 ± 94,63 Kapillaren/mm^2 and the Kapillardichte (Patienten mit CMP [1]; Subepicardium (sEpi)) was 1168,11 ± 165,04 Kapillaren/mm^2. The “mehr Kapillaren als die Kontrollgruppe” value (Patienten mit CMP [1]; treated patients versus control group) was about 50%, the “Anzahl der MIB-1 positiven Zellen” value (MIB-1 (anti-Ki67); Myocardium) was 15,44 ± 4,64 pro mm^2 and the “Anzahl der MIB-1 positiven Zellen” value (MIB-1 (anti-Ki67); Subendocardium) was 17,84 ± 4,23 pro mm^2. For the same molecule, the “Anzahl der MIB-1 positiven Zellen” value (MIB-1 (anti-Ki67); Subepicardium) was 20,22 ± 4,87 pro mm^2, the “anti-vWf reaktive Endothelien” value ([2]; Myocardium) was 360,00 ± 52,31 mm^2 and the “anti-vWf reaktive Endothelien” value ([2]; Subendocardium) was 408,00 ± 80,00 mm^2. The “% Muskelanteil/mm^2” value (Patienten) was 74,9 ± 3,7%, the “Muskelzahl/mm^2” value (Patienten) was 982,68 ± 141,43 /mm^2 and the “Leukozyten (serologisch)” value (Tierversuche) was “mehr Leukozyten”. The “klinischer Zustand” value (Patienten mit CMP [3]; end-stage heart failure, with increased ejection fraction and cardiac output, reduced NYHA stage and pulmonary circulation pressures) was “deutliche Verbesserung”, the “maximal tolerierte Dosis (MTD)” value (Patienten mit CMP [3]; infusion via central right-heart catheter, escalated from 2,5 ng/kg/min until side effects occurred) was 29 ± 1 ng/kg/min and the “hämodynamische Parameter im Vergleich zu den Ausgangswerten” value (Patienten mit CMP [3]; under infusion therapy) was “deutliche Verbesserung”. For the same molecule, the “VEGF-positive Kapillaren/mm^2” value (VEGF; Myocardium) was 76,2 ± 4,9 /mm^2, the “VEGF-positive Kapillaren/mm^2” value (VEGF; Subendocardium) was 89,1 ± 5,7 /mm^2 and the “VEGF-positive Kapillaren/mm^2” value (VEGF; Subepicardium) was 101,2 ± 5,5 /mm^2. For the same molecule, the “anti-CD34 reaktives Endothel” value (CD 34; Myocardium) was 482,11 ± 79,86 mm^2, the “anti-CD34 reaktives Endothel” value (CD 34; Subendocardium) was 482,11 ± 79,86 mm^2 and the “anti-CD34 reaktives Endothel” value (CD 34; Subepicardium) was 599,22 ± 107,17 mm^2. The Fibrosegrad [4] was 6,89 ± 3,59%, the Herzmuskelanteil [4] was 72,69 ± 5,25% and the “Nierenfunktion (Paraaminohippurat-Clearance, Iothalamat-Clearance)” value [5] was “bessere Nierenwerte”. For the same molecule, the “hämodynamischer Effekt” value [5] was “besseren hämodynamischen Effekt” and the “Wirkung bei akutem Leberversagen” value [6] was “keine Wirkung”.
